# Measured values: patent publication US9255272B2, “Use of inhibitors of leukotriene B4 receptor BLT2 for treating asthma” (Korea University Research & Business Foundation, priority 2007, dated 2016)
# Assays:
# BLT2 mRNA = BLT2 mRNA level in lung of OVA-challenged mice (semiquantitative RT-PCR, real-time PCR); format: in vivo, mouse
# Description: Female BALB/c mice and C57BL/6 mice (7 weeks old; 18-20 g) were obtained from Orientbion Inc. (Seoungnam, Korea). Sensitization and challenge were carried out as described previously with some modification (28). Briefly, female C57BL/6 mice (7 weeks old; 18-20 g) were immunized by intraperitoneal (i.p.) injection of 200 μg ovalbumin (OVA) emulsified in 2.5 mg of adjuvant aluminum hydroperoxide gel (alum) (Pierce, Rockford, Ill.). A second i.p. injection of 20 μg OVA adsorbed onto alum (2.5 mg) was administered 10 days later. After an additional 10 days, mice were exposed to an aerosol of 1% OVA in saline for 30 min daily on 3 consecutive days. On day 25, mice were finally challenged by provocation with 10% OVA aerosol. […]
# (§1) Total RNA was extracted from lung samples using Easy-blue RNA extraction reagent (Intron, Korea). […] For the semiquantitative analysis of transcripts, the optimal PCR conditions were first determined by linear amplification of glyceraldehyde-3-phosphate dehydrogenase (GAPDH). […]
# as §1
# OVA-challenged mice = experiment: Histological analysis of lung airway inflammation in OVA-challenged mice; format: in vivo, mouse
# Description: Female BALB/c mice and C57BL/6 mice (7 weeks old; 18-20 g) were obtained from Orientbion Inc. (Seoungnam, Korea). Sensitization and challenge were carried out as described previously with some modification (28). Briefly, female C57BL/6 mice (7 weeks old; 18-20 g) were immunized by intraperitoneal (i.p.) injection of 200 μg ovalbumin (OVA) emulsified in 2.5 mg of adjuvant aluminum hydroperoxide gel (alum) (Pierce, Rockford, Ill.). A second i.p. injection of 20 μg OVA adsorbed onto alum (2.5 mg) was administered 10 days later. After an additional 10 days, mice were exposed to an aerosol of 1% OVA in saline for 30 min daily on 3 consecutive days. On day 25, mice were finally challenged by provocation with 10% OVA aerosol. For inhibition experiments, sense or antisense BLT2 (1.6 mg/kg) was injected intravenously 24 h and then 1 h before the 10% OVA challenge. The mice were then killed on day 27 to assess asthmatic phenotypes. Antisense BLT2 oligonucleotide (5′-[…]-3′ (SEQ ID NO: 15)), sense BLT2 oligonucleotide (5′-[…]-3′ (SEQ ID NO: 16)).
# Alternatively, BALB/c mice were sensitized on day 1 by i.p. injection of 20 μg OVA emulsified in 2.5 mg of alum (Pierce, Rockford, Ill.), followed by an identical booster injection administered on day 14. On days 21, 22 and 23 after initial sensitization, the mice were challenged for 30 min with an aerosol of 1% OVA using an ultrasonic nebulizer. LY255283 (2.5 mg/kg) or vehicle control (DMSO) was administered intravenously 1 h before 1% OVA challenge. Mice were killed on day 25, to assess asthmatic phenotypes. 2′,7′-dichorofluorescein diacetate (DCF-DA) was purchased from Molecular Probes (Eugene, Oreg.). BSA and DMSO were from Sigma-Aldrich (St. Louis, Mo.). Acetyl-methacholine chloride was purchased from Sigma-Aldrich (St. Louis, Mo.). All other chemicals were from standard sources and were of molecular biology grade or higher. All mice were maintained and bred under specific pathogen-free conditions in the Korea University mouse facility, and experiments were conducted within the parameters of an approved protocol by the Animal Research Committee.
# Inflammatory cells in the BAL fluid were collected by centrifugation (1,000 g for 3 min) and washed once in PBS. Cells were counted using a hemocytometer, and viability was assessed by trypan blue exclusion. In addition, cytospin was carried out for each BAL sample, which was then stained with Diff-Quick (Merck, Dorset, U.K.), enabling differential cell counts to be made. For histological analysis, the lungs of the mice were dissected 48 h after OVA challenge and fixed with 10% formaldehyde in PBS, dehydrated in ethanol-xylene, and embedded in paraffin. Multiple paraffin-embedded […] sections were placed on 0.5% gelatin-coated slides, deparaffinized, and stained with hematoxylin-eosin (HE). Images were acquired using a BX51 microscope (Olympus, Tokyo, Japan) equipped with a DP71 digital camera (Olympus, Tokyo, Japan).
# (§2) Inflammatory cells in the BAL fluid were collected by centrifugation (1,000 g for 3 min) and washed once in PBS. Cells were counted using a hemocytometer, and viability was assessed by trypan blue exclusion. […]
# as §2
# [1] = BALB/c mice, LY255283 2.5 mg/kg i.v. 1 hr before 1% OVA challenge
# [2] = C57BL/6 mice, antisense BLT2 1.6 mg/kg i.v. 24 hr and 1 hr before 10% OVA challenge
compound,measurement,setting,value
"CCc1cc(C(C)=O)c(O)cc1OCCCCCC(C)(C)c1nnn[nH]1 [LY255283, 1-[5-ethyl-2-hydroxy-4-[[6-methyl-6-(1H-tetrazol-5-yl)heptyl]oxy]phenyl]-ethanone, reference compound]",level of BLT2 mRNA in the lung,"BLT2 mRNA; BALB/c mice, LY255283 2.5 mg/kg i.v. 1 hr before 1% OVA challenge, 48 h after challenge",significantly reduced
same,airway obstruction and leukocyte infiltration (histology),OVA-challenged mice; [1],diminished the effect
same,reduction of inflammation score as compared to control,OVA-challenged mice; [1],~66%
"antisense BLT2: Antisense BLT2 oligonucleotide 5′-GCTCAGTAGTGTCTCATTCC-3′ (SEQ ID NO: 15) (listed as DNA, chemistry not fully specified)",BLT2 expression in the lung (mRNA),"BLT2 mRNA; C57BL/6 mice, 1.6 mg/kg i.v. 24 hr and 1 hr before 10% OVA challenge, 48 hr after challenge",reduced
same,airway obstruction and leukocyte infiltration (histology),OVA-challenged mice; [2],diminished
same,reduction of inflammation scores as compared to control,OVA-challenged mice; [2],~67%
"antisense Rac: phosphorothioate 17-mer to the 5′ end of murine Rac mRNA, 5′-CACTTGATGGCCTGCAT-3′ (SEQ ID NO: 22) (listed as DNA, chemistry not fully specified)",airway obstruction and leukocyte infiltration (histology),"OVA-challenged mice; Rac antisense i.v. 24 hr and 1 hr before 10% OVA challenge, 48 hr after challenge",diminished the effect
